# Entries after “also recorded” stand apart in the source; their conditions may differ.
# Legend:
# [1] = tested on: rabbit intralobar pulmonary arteries; test: Promotion of 5,6-EET induced vasoconstriction in rabbit intralobar pulmonary artery rings; conditions: compound at 1 μM; rabbit PA rings
# Procedure: To obtain the pulmonary arteries used in the study, adult New Zealand white rabbits (2.4-3.0 kg) were anesthetized with pentobarbital sodium (15 mg/kg iv) for 10 minutes after intramuscular administration of ketamine (8 mg/kg) and xylazine (2 mg/kg). A tracheostomy was performed and a tracheal cannula was inserted. The animals were ventilated via a fixed volume ventilator (Harvard) with room air (tidal volume: 8-10 ml/kg at 15 cycles/min). A catheter was inserted into a carotid artery for administration of heparin (1,000 units, iv) 10 minutes before exsanguination of the animal. After exsanguination, the lungs were removed for isolation of the pulmonary vessels. Intralobar, second order pulmonary arteries (PA) were obtained as described previously (Stephenson A. H., et al., American Journal of Physiology 284: H2153-H2161, 2003). […] Ring tension was measured from one of the support wires attached to an isometric force transducer (FT03, Grass) and recorded continuously on a polygraph (Grass). Each ring was placed under a basal (passive) tension (0.75 to 1.5 g) determined to result in a maximal contractile response to KCl (60 mM). […]
# [2] = tested on: rabbit intralobar pulmonary arteries; test: Inhibition of agonist-induced vasoconstriction in rabbit intralobar pulmonary artery rings (ring tension); conditions: compound at 10 μM; for inhibition of 5,6-EET-induced vasoconstriction (concentration-response curve shifted to the right): 5,6-EET 1×10^−8-1×10^−5 M, rabbit PA rings
# Procedure: To obtain the pulmonary arteries used in the study, adult New Zealand white rabbits (2.4-3.0 kg) were anesthetized with pentobarbital sodium (15 mg/kg iv) for 10 minutes after intramuscular administration of ketamine (8 mg/kg) and xylazine (2 mg/kg). A tracheostomy was performed and a tracheal cannula was inserted. The animals were ventilated via a fixed volume ventilator (Harvard) with room air (tidal volume: 8-10 ml/kg at 15 cycles/min). A catheter was inserted into a carotid artery for administration of heparin (1,000 units, iv) 10 minutes before exsanguination of the animal. After exsanguination, the lungs were removed for isolation of the pulmonary vessels. Intralobar, second order pulmonary arteries (PA) were obtained as described previously (Stephenson A. H., et al., American Journal of Physiology 284: H2153-H2161, 2003). Briefly, intralobar PA (1-2 mm OD) were dissected free of extravascular tissue, cut into rings 3-4 mm in length and suspended in water-jacketed tissue chambers containing 10 ml of a physiological salt solution (PSS) composed of (in mM): NaCl (118.3), KCl (4.7), CaCl2 (2.5), MgS04 (1.2), KH2P04 (1.2), NaHC03 (25) Na-EDTA (0.026), and glucose (11.1). The PSS was gassed with 95% O2-5% CO2 (pH: 7.4) and maintained at 37° C. Each ring was mounted between two stainless steel support wires. Ring tension was measured from one of the support wires attached to an isometric force transducer (FT03, Grass) and recorded continuously on a polygraph (Grass). Each ring was placed under a basal (passive) tension (0.75 to 1.5 g) determined to result in a maximal contractile response to KCl (60 mM). In some studies, basal tension was increased with 25 mM KCl to achieve a submaximal increase in active tension. At basal tension, concentrations of 5,6-EET (1×10^−8-1×10^−5 M, delivered in 1 μl of absolute ethanol) were added individually or cumulatively to the rings in 10 ml PSS. Total ethanol concentration in the tissue chambers never exceeded 0.1%. In these experiments, 5,6-EET was added in the presence or absence of the selective 5,6-EET inhibitors 13-HTEC (10 μM) and 14-HTYC (10 μM). […] PA rings were also exposed to various concentrations of PGF2α, (Sigma Chemical Company, St. Louis, Mo.), 14,15-EET (Cayman Chemical, Ann Arbor, Mich.), 5-hydroxytryptamine (5-HT) (Sigma Chemical Company, St. Louis, Mo.), and norepinephrine (NE) (Sigma Chemical Company, St. Louis, Mo.).
# [3] = tested on: isolated perfused rabbit lungs; test: Hypoxia-induced pulmonary vasoconstriction in isolated perfused rabbit lungs (with L-NAME); conditions: compound at 10 μM in perfusate, L-NAME 100 μM
# Procedure: Adult New Zealand white rabbits were prepared as described in Example 2. After exsanguination was completed, a midsternal thoracotomy was performed, and the heart and lungs were removed en bloc. Fluid-filled catheters were placed into the PA and the left atrium for lung perfusion and pressure measurements. The isolated lungs were ventilated at 10 ml/kg with 26-30 breaths/min of 15% O2-6% CO2-79% N2 to achieve a perfusate pH of 7.33±0.01, PCO2 of 38.1±2.8 mmHg, and PO2 of 107.3±5.9 mmHg. The lungs were perfused in a humidified chamber (34-37° C.) in a recirculating manner with 150 ml of PSS containing (in mM) 118.3 NaCl, 4.7 KCl, 2.5 CaCl2, 1.2 MgSO4, 1.2 KH2PO4, 25.0 NaHCO3, 0.026 Na-EDTA, and 11.1 glucose (pH 7.4) to which hetastarch was added for maintenance of oncotic pressure. […] Pulmonary arterial (Ppa, inflow), pulmonary venous (Pla, outflow), and airway pressures were recorded continuously. Microvascular pressure (Pmv) was measured by the double occlusion method (Dawson C. A., et al., Journal of Applied Physiology 64: 274-284, 1988; Wurtz M. M., et al., J Appl Physiol 73: 2135-2141, 1992). […] Total PVR was calculated as (Ppa Pla)/perfusate flow rate. Arterial PVR was calculated as (Ppa Pmv)/perfusate flow rate, and venous PVR was calculated as (Pmv Pla)/perfusate flow rate (Stephenson A. H., et al., Am J Physiol 275: H100-H109, 1998).
# mice = conditions: Pokreisz et al. 2006; cited from earlier work
smiles,measurement,setting,value
"CCCCCC1OC1CCCCCCC/C=C\CCCC(=O)O (stereo not shown) [14,15-EEZE, 14,15-epoxyeicosa-5(Z)-enoic acid]","effect on vasoconstrictor activity of exogenously administered 5,6-EET (concentration-response curve shifted to the left)",[1],significantly promoted or agonized
"CCCCCCCOCCCCCCC/C=C\CCCC(=O)O [Compound 13-HTEC, 13-heptyloxytridec-5(Z)-enoic acid]",inhibition of 5-hydroxytryptamine (5-HT)-mediated vasoconstriction of PA,[2],is not inhibited; also recorded: does not inhibit
same,"inhibition of 14,15-EET-mediated vasoconstriction of PA",[2],is not inhibited; also recorded: does not inhibit
same,inhibition of PGF2α-mediated vasoconstriction of PA,[2],is not inhibited; also recorded: does not inhibit
same,inhibition of norepinephrine (NE)-mediated vasoconstriction of PA,[2],Minimal effects; also recorded: may have partially inhibited
same,"inhibition of 5,6-EET-induced vasoconstriction (concentration-response curve shifted to the right)",[2],specifically inhibit; also recorded: significantly inhibited
same,effect on pulmonary arterial inflow (Ppa) pressure / hypoxia-induced vasoconstriction,[3],hypoxia-induced vasoconstriction is reduced; also recorded: significantly decreased
"CCCCCCOCCCCCCCCC#CCCCC(=O)O [Compound 14-HTYC, 14-(hexyloxy)tetradec-5-ynoic acid]","inhibition of 5,6-EET-induced vasoconstriction (concentration-response curve shifted to the right)",[2],specifically inhibit
"C#CCOc1ccccc1CCCCCC(=O)NS(C)(=O)=O [MSPPOH, N-methyl sulfonyl-6-(2-propargyloxyphenyl)hexanamide]",effect on acute hypoxia-induced pulmonary hypertension,mice,significantly reduced
same,effect on chronic hypoxia-induced pulmonary vascular remodeling,mice,significantly reduced

# From patent US20080095711A1, “Modulators of Pulmonary Hypertension” (priority 2006, published 2008)
